Assay [1] relates to rats with PDD. As to the kind of experiment: T-maze test (working memory) in MPTP-HCl-induced PDD rats. Format: in vivo, male Wistar rats. On the procedure:
1-methyl-4-phenyl-1,2,3,6-tetrahydropyridine hydrochloride (MPTP-HCl) was used to induce PDD in the rats, and the therapeutic effect of ceftriaxone on PDD was evaluated via behavioral tests and histopathological assessment of the brain for the rats. The experiments of this example were conducted substantially according to the method as described in Ho Y. J. et al. (2011), Behav. Brain Res., 219:280-290.
The rats in the pathological control group, the preventive groups, and the treatment groups were anesthetized using Zoletil (Virbac, Carros, France; 20 mg/kg, intraperitoneal injection). Afterward, 0.5 M MPTP-HCl (in saline) was slowly infused bilaterally into the substantia nigra pars compacta (SNc) of the mesencephalon of each rat in the pathological control group, the preventive groups, and the treatment groups (0.21 mg/side) so as to induce the same to develop PDD.
5 days before the MPTP-HCl injection, ceftriaxone (Sigma) was administered to the rats in the preventive groups 1,2 via […] day after the MPTP-HCl injection. After the MPTP-HCl injection, […] 2,3 via intraperitoneal injection respectively at a daily dose of 200 mg/kg, at a daily dose of 100 mg/kg, and at a daily dose of 200 mg/kg, and saline was administered to the rats in the pathological control group and the sham-operated group 1 via intraperitoneal injection at a daily dose of 1 mL/kg. […] The rats in the pathological control group, the treatment groups 1,2,3, and the sham-operated groups 1,2,3 were subjected to the once-a-day administration until the end of the 14th day after the MPTP-HCl injection.
Starting on the 8th day after the MPTP-HCl injection, the rats in each group were subjected to the T-maze test as described in section C of this example. Starting on the 12th day after the MPTP-HCl injection, the rats in each group were subjected to the object recognition test as described in section D of this example. On the 15th day after the MPTP-HCl injection, the rats in the treatment group 1, the sham-operated group 1, and the pathological control group were subjected to the histopathological analysis as described in section E of this example.
In order to investigate the effect of ceftriaxone on the working memory of the rats with PDD, on the 8th day after the MPTP-HCl injection, 11 rats, 32 rats, and 36 rats were randomly selected respectively from the treatment group 1, the sham-operated group 1, and the pathological control group, and the aforesaid randomly selected rats and each of the rats in the rest of the groups were subjected to a T-maze test. The T-maze test lasted a total of three days, and was conducted substantially according to the following methods: • (1) One day before the start of the T-maze test, the rats are subjected to 23 hours of fasting. Furthermore, on each of three days for the training session, after all of trials were finished, the rats were fed for an hour. • (2) The training session—the 1st and 2nd days of the T-maze test: • The respective rat is subjected to a total of 9 trials. In each of the trials, one forced run and one choice run were sequentially conducted. The time interval between the forced run and the choice run was 30 seconds. The respective rat was placed at the start end 11 of the T-maze to begin either the forced run or the choice run. When the forced run was conducted, the sliding door 22 of one of the two choice arms 2 was closed, and a food serving as a reward was placed at the terminal end 21 of the other one of the two choice arms 2.

For assay [2], the system named is rats with PDD. As to the kind of experiment: Nissl staining of pyramidal neurons in the hippocampal CA1 area of PDD rats. As to conditions: Example 1 treatment group 1: 200 mg/kg daily i.p. for 14 days after MPTP-HCl; determined 15th day (FIG. 6). Format: in vivo, male Wistar rats. The source says:
In order to investigate whether ceftriaxone is effective in ameliorating neuroinflammation and neurodegeneration of the rats with PDD, on the 15th day after the MPTP-HCl injection, four rats were randomly selected from each of the treatment group 1, the sham-operated group 1, and the pathological control group for histopathological analysis.
The randomly selected rats were sacrificed using CO2, followed by perfusion with 4% paraformaldehyde (in phosphate buffered saline). The brains were rapidly removed and were post-fixed in a 30% sucrose solution containing 4% paraformaldehyde at 4° C. for at least three days. The brains were cut into coronal sections (a thickness of about 30 μm) using a cryostat (Leica CM3050 S, Leica).
In addition, the sections containing the hippocampal CA1 area were selected and were subjected to Nissl staining according to the method well known to and commonly used by one skilled in the art. […] Image Pro Plus Software 6.0 was utilized to estimate the percentage of an area occupied by pyramidal neurons in an area of 2,354 μm^2 according to the semi-quantitative method as described in Xavier L. L. et al. (2005), Brain Research protocols, 16:58-64.
The experimental data are expressed as mean±SEM. […]

`CO/N=C(\C(=O)N[C@@H]1C(=O)N2C(C(=O)O)=C(CSc3nc(=O)c(=O)[nH]n3C)CS[C@H]12)c1csc(N)n1` [ceftriaxone, Ceftriaxone]: the “correct response rate compared to the pathological control group” value in the assay with rats with PDD [1] (Example 1 preventive group 1: 100 mg/kg daily i.p. from 5 days before MPTP-HCl to 14th day after, determined 10th day (FIG. 3)) is “higher”; with rats with PDD [1] (Example 1 preventive group 2: 200 mg/kg daily i.p. from 5 days before MPTP-HCl to 14th day after, determined 10th day (FIG. 3)), “higher”; with rats with PDD [1] (Example 1 treatment group 1: 200 mg/kg daily i.p. after MPTP-HCl injection to 14th day, determined 10th day, difference statistically significant (FIG. 3)), “higher”; in the assay on rats with PDD [1] (Example 1 treatment group 2: 100 mg/kg daily i.p. starting 3rd day after MPTP-HCl to 14th day, determined 10th day, difference statistically significant (FIG. 3)), “higher”; in the assay on rats with PDD [1] (Example 1 treatment group 3: 200 mg/kg daily i.p. starting 3rd day after MPTP-HCl to 14th day, determined 10th day, difference statistically significant (FIG. 3)) it was “higher”; in the assay on rats with PDD [1] (Example 2 treatment group 1: 10 mg/kg daily i.p. after MPTP-HCl injection to 14th day, determined 10th day (FIG. 7)), “significantly higher”. Also, in the assay on rats with PDD [1] (Example 2 treatment group 2: 50 mg/kg daily i.p. after MPTP-HCl injection to 14th day, determined 10th day (FIG. 7)), the “correct response rate compared to the pathological control group” value is on record as “significantly higher”. Further, the “percentage of an area occupied by pyramidal neurons in the hippocampal CA1 area compared to the pathological control group” value in the assay with rats with PDD [2] is given as “significantly higher”.

The record behind these values is US9326988B2, “Treatment and/or prevention of parkinson's disease dementia with ceftriaxone” (CHUNG SHAN MEDICAL UNIVERSITY, priority 2012, dated 2016).
